In US11912652B1, “8-(2-hydroxybenzylideneamino)naphthalene-1,3-disulfonic acid as an antioxidant compound” (KING FAISAL UNIVERSITY, priority 2023, dated 2024):

Test: DPPH (2,2-diphenyl-1-picrylhydrazyl) radical scavenging antioxidant test
Format: biochemical
Settings: 517 nm; for Inhibition (radical scavenging inhibition): 0.2 mL DPPH (0.75 mM), compound 3 μM in ethanol, 30 minutes in the dark
Method: The antioxidant properties of the 8-(2-hydroxybenzylideneamino)naphthalene-1,3-disulfonic acid compound were studied by adding 0.2 mL DPPH (0.75 mM)) to 8-(2-hydroxybenzylideneamino)naphthalene-1,3-disulfonic acid (III) (3 μM) in ethanol. After 30 minutes of incubation in the dark, the absorbance was read against a blank at 517 nm. Ascorbic acid (vitamin C) was used as standard antioxidants (positive control). A blank sample was prepared by 0.2 ml of DPPH in 3 mL ethanol. A negative control sample was run using ethanol instead of the sample. The radical scavenging inhibition was calculated using the following equation: […]
The antioxidant activity for the synthesized compound is listed in Table 1, using Vitamin C as a reference.

| SMILES | Inhibition (radical scavenging inhibition) [%] | antioxidant potential compared to vitamin C (in words) (DPPH in vitro test, vitamin C as positive control) |
| --- | --- | --- |
| O=S(=O)(O)c1cc(S(=O)(=O)O)c2c(/N=C/c3ccccc3O)cccc2c1 [Product III, 8-(2-hydroxybenzylideneamino)naphthalene-1,3-disulfonic acid] | 54 | high potential as an antioxidant |
| O=C1O[C@H]([C@@H](O)CO)C(O)=C1O [vit c, Ascorbic acid, reference compound] | 74 |  |
